Data taken from patent US5369114A, “Biphenylene branched alkyleneoxy quinolines” (Imperial Chemical Industries PLC, priority 1990, dated 1994).

Columns and labels:
[1] = target: T1, AII receptors (cell surface membrane fraction, guinea pig adrenal gland) (Cavia porcellus, UniProt Q9WV26); test: Test A: displacement of radiolabelled AII binding from guinea pig adrenal membranes; conditions: in vitro, read-out: IC50 (concentration for 50% displacement of radiolabelled AII binding)
T1 construct: the source of cell surface membranes is the guinea pig adrenal gland; from tissue; host or cells: guinea pig adrenal gland, cell surface membrane fraction
T1 sequence (Q9WV26 1-359): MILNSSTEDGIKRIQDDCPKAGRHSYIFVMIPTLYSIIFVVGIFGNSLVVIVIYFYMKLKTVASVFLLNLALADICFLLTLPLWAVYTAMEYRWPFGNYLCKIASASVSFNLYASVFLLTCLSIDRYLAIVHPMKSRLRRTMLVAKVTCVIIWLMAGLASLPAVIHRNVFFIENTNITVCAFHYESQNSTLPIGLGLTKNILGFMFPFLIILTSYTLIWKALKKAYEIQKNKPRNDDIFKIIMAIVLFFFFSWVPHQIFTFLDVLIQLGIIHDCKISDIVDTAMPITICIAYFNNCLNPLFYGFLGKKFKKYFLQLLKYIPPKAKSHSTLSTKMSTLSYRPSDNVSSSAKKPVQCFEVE
Method: This in vitro procedure involves the incubation of the test compound initially at a concentration of 100 micromolar (or less) in a buffered mixture containing fixed concentrations of radiolabelled AII and a cell surface membrane fraction prepared from a suitable angiotensin target tissue. In this test, the source of cell surface membranes is the guinea pig adrenal gland which is well known to respond to AII. Interaction of the radiolabelled AII with its receptors (assessed as radiolabel bound to the particulate membrane fraction following removal of unbound radiolabel by a rapid filtration procedure such as is standard in such studies) is antagonized by compounds which also bind to the membrane receptor sites and the degree of antagonism (observed in the test as displacement of membrane-bound radioactivity) is determined readily by comparing the receptor-bound radioactivity in the presence of the test compound at the specified test concentration with a control value determined in the absence of the test compound. Using this procedure compounds showing at least 50% displacement of radiolabelled AII binding at a concentration of 10^-4 M are retested at lower concentrations to determine their potency. […]

[2] = test system: angiotensin II-induced pressor responses; test: Test C: in vivo antagonism of angiotensin II-induced pressor responses in rats; conditions: iv, rat, i.v. administration
Method: This in vivo test involves using terminally-anaesthetised or conscious rats in which an arterial catheter has been implanted under anaesthesia for the measurement of changes in blood pressure. The AII antagonistic effects of the test compound following oral or parenteral administration, are assessed against angiotensin II-induced pressor responses. To ensure that the effect is specific, the effect of the test compound on vasopressin-induced pressor responses may also be determined in the same preparation.

- IC50 [1]: 40 nM
SMILES: Cc1cc(OC(C)c2ccc(-c3ccccc3-c3nnn[nH]3)cc2)c2ccccc2n1.Cl (centres unmarked) [Example 1, 2-methyl-4-[1-(2'-(1H-tetrazol-5-yl)biphenyl-4-yl)ethoxy]quinoline hydrochloride]
- ED50 [2]: 0.18 mg/kg
